Results reported in patent US20260102359A1, “COMBINATION TREATMENT OF DERMAL AND TRANSDERMAL FIBROTIC DISEASES, DISORDERS AND ASSOCIATED PAIN AND INFLAMMATION” (ERESINA, LLC, priority 2022, published 2026).
Counter-ions that a name gives are not always drawn. *1 amine or outer side, *2 acyl side, *3 side chain or, on linkers, in order; H or OH if unused. Where a SMILES comes first, the peptide text is derived from it. Bridges are numbered along the chain shown (N, C = ends). Roman numbers before positions name the chains, in order. [ ]: non-standard residue; d: D form. Actinocin(9to1) = Cc1c2oc3c(C)ccc(C(=O)[*:1])c3nc-2c(C(=O)[*:2])c(N)c1=O; NMeV = CN[C@H](C(=O)O)C(C)C; Sar = CNCC(=O)O

Tested on: hDMFa myofibroblast cells

| Compound | Compound Myofibroblast Cytotoxicity Activity |
| --- | --- |
| CC(=O)O.Cc1cc2c(C(C)C)c(O)c(O)c(C=O)c2c(O)c1-c1c(C)cc2c(C(C)C)c(O)c(O)c(C=O)c2c1O [Cmpd 80, Acetate gossypol] | +++++ |
| CC(=O)NO [Cmpd 81, Acetohydroxamic Acid] | ++++ |
| CC(=O)c1ccccc1 [Cmpd 82, Acetophenone] | ++ |
| CC(=O)OCC[N+](C)(C)C.[I-] [Cmpd 83, Acetylcholine iodide] | ++ |
| Cc1c2oc3c(C)ccc(C(=O)N[C@@H]4C(=O)N[C@H](C(C)C)C(=O)N5CCC[C@H]5C(=O)N(C)CC(=O)N(C)[C@@H](C(C)C)C(=O)O[C@@H]4C)c3nc-2c(C(=O)N[C@@H]2C(=O)N[C@H](C(C)C)C(=O)N3CCC[C@H]3C(=O)N(C)CC(=O)N(C)[C@@H](C(C)C)C(=O)O[C@@H]2C)c(N)c1=O [Cmpd 86, Actinomycin D] (I: T[dV]P[Sar][NMeV] / II: T[dV]P[Sar][NMeV]; ester I:1-I:C, II:1-II:C; linker I:N-II:N via Actinocin(9to1)) | ++ |
| CC(C)(C)C(=O)OCOP(=O)(COCCn1cnc2c(N)ncnc21)OCOC(=O)C(C)(C)C [Cmpd 89, Adefovir Dipivoxil] | ++++ |
| Nc1ncnc2c1ncn2[C@@H]1O[C@H](COP(=O)(O)OP(=O)(O)OP(=O)(O)O)[C@@H](O)[C@H]1O [Cmpd 91, Adenosine 5-triphosphate] | +++ |
| Nc1ncnc2c1ncn2[C@@H]1O[C@H](COP(=O)(O)OP(=O)(O)O)[C@@H](O)[C@H]1O [Cmpd 92] | ++ |
| C=C1C(=O)O[C@@H]2C[C@@]3(C)CCC[C@H](C)C3=C[C@H]12 [Cmpd 97, Alantolactone] | ++++ |
| C=C1/C(=C\C=C2/CCC[C@]3(C)[C@@H]([C@H](C)CCCC(C)C)CC[C@@H]23)C[C@@H](O)C[C@@H]1O [Cmpd 98, Alfacalcidol] | +++ |
| Cn1c(=O)cc(N2CCC[C@@H](N)C2)n(Cc2ccccc2C#N)c1=O [Cmpd 100, Alogliptin Benzoate] | +++ |
| Cc1[nH]cnc1CN1CCc2c(c3ccccc3n2C)C1=O.Cl [Cmpd 101, Alosetron Hydrochloride] | ++++ |
| N=C(N)NC(=O)c1nc(Cl)c(N)nc1N [Cmpd 105, Amiloride HCl dihydrate] | ++ |
| CCCCc1oc2ccccc2c1C(=O)c1cc(I)c(OCCN(CC)CC)c(I)c1 [Cmpd 107, Amiodarone HCl] | +++ |
| CCOC(=O)C1=C(COCCN)NC(C)=C(C(=O)OC)C1c1ccccc1Cl (stereo not drawn) [Cmpd 110, Amlodipine] | +++ |
| CCOC(=O)C1=C(COCCN)NC(C)=C(C(=O)OC)C1c1ccccc1Cl (stereo not drawn) [Cmpd 111, Amlodipine Besylate] | ++++ |
| CCC(C)(C)c1ccc(CC(C)CN2C[C@@H](C)O[C@@H](C)C2)cc1 (stereo partly drawn) [Cmpd 113, Amorolfine HCl] | +++ |
| COc1cc(NS(C)(=O)=O)ccc1Nc1c2ccccc2nc2ccccc12.Cl [Cmpd 116, Amsacrine hydrochloride] | +++ |
| S=C(NCc1ccc2c(c1)OCO2)N1CCN(c2ncnc3c2oc2ccccc23)CC1 [Cmpd 117, Amuvatinib (MP-470,HPK 56)] | ++ |
| C[C@@H](O[C@H]1OCCN(Cc2n[nH]c(=O)[nH]2)[C@H]1c1ccc(F)cc1)c1cc(C(F)(F)F)cc(C(F)(F)F)c1 [Cmpd 126, Aprepitant] | ++++ |

| Compound | Compound Myofibroblast Cytotoxicity Activity |
| --- | --- |
| O=C1CCc2ccc(OCCCCN3CCN(c4cccc(Cl)c4Cl)CC3)cc2N1 [Cmpd 129, Aripiprazole] | +++ |
| COc1cccc2c1cc([N+](=O)[O-])c1c(C(=O)O)cc3c(c12)OCO3 [Cmpd 130, Aristolochic Acid A] | ++ |
| C[C@H]1[C@H](OC(=O)CCC(=O)O)O[C@@H]2O[C@@]3(C)CC[C@H]4[C@H](C)CC[C@@H]1[C@@]24OO3 [Cmpd 132, Artesunate] | +++ |
| CC[C@@H]1/C=C(\C)C[C@H](C)C[C@H](OC)[C@H]2O[C@@](O)(C(=O)C(=O)N3CCCC[C@H]3C(=O)O[C@H](/C(C)=C/[C@@H]3CC[C@@H](O)[C@H](OC)C3)[C@H](C)[C@@H](O)CC1=O)[C@H](C)C[C@@H]2OC [Cmpd 133, Ascomycin(FK 520)] | +++ |
| COc1ccc(CCN2CCC(Nc3nc4ccccc4n3Cc3ccc(F)cc3)CC2)cc1 [Cmpd 136, Astemizole] | ++++ |
| COC(=O)N[C@H](C(=O)N[C@@H](Cc1ccccc1)[C@@H](O)CN(Cc1ccc(-c2ccccn2)cc1)NC(=O)[C@@H](NC(=O)OC)C(C)(C)C)C(C)(C)C [Cmpd 138, Atazanavir] | ++ |
| CC(C)c1c(C(=O)Nc2ccccc2)c(-c2ccccc2)c(-c2ccc(F)cc2)n1CC[C@@H](O)C[C@@H](O)CC(=O)[O-].CC(C)c1c(C(=O)Nc2ccccc2)c(-c2ccccc2)c(-c2ccc(F)cc2)n1CC[C@@H](O)C[C@@H](O)CC(=O)[O-].[Ca+2] [Cmpd 140, Atorvastatin Calcium] | ++++ |
| COc1ccc(CC2c3cc(OC)c(OC)cc3CC[N+]2(C)CCC(=O)OCCCCCOC(=O)CC[N+]2(C)CCc3cc(OC)c(OC)cc3C2Cc2ccc(OC)c(OC)c2)cc1OC (stereo not drawn) [Cmpd 142, Atracurium Besylate] | +++ |
| CCOc1nc2cccc(C(=O)OCc3oc(=O)oc3C)c2n1Cc1ccc(-c2ccccc2-c2noc(=O)[nH]2)cc1 [Cmpd 149, Azilsartan Medoxomil] | ++ |
| Cc1ccc(NC(=O)c2ccc(CN3CC[C@H](N(C)C)C3)c(C(F)(F)F)c2)cc1Nc1nccc(-c2cncnc2)n1 [Cmpd 152, Bafetinib (INNO-406)] | +++ |
| CNC1CCCN(c2c(F)cc3c(=O)c(C(=O)O)cn(C4CC4)c3c2OC)C1 (stereo not drawn) [Cmpd 154, Balofloxacin Dihydrate] | ++ |
| COC(=O)[C@]12CCC(C)(C)C[C@H]1[C@H]1C(=O)C=C3[C@@]4(C)C=C(C#N)C(=O)C(C)(C)[C@@H]4CC[C@@]3(C)[C@]1(C)CC2 [Cmpd 156, Bardoxolone methyl] | +++++ |
| CC(C)(C)c1ccc(S(=O)(=O)/C=C/C#N)cc1 [Cmpd 157, Bay 11-7085] | +++++ |
| Cc1ccc(S(=O)(=O)/C=C/C#N)cc1 [Cmpd 158, Bay 11-7821(BAY 11-7082)] | +++++ |
| Cc1c(-c2ccc(O)cc2)n(Cc2ccc(OCCN3CCCCCC3)cc2)c2ccc(O)cc12 [Cmpd 159, Bazedoxifene acetate] | ++++ |
| COC(=O)C1=C(C)NC(C)=C(C(=O)OC2CCCN(Cc3ccccc3)C2)C1c1cccc([N+](=O)[O-])c1 (stereo not drawn) [Cmpd 161, Benidipine HCl] | ++ |
| NC(CO)C(=O)NNCc1ccc(O)c(O)c1O (stereo not drawn) [Cmpd 162, Benserazide HCl] | ++ |
| Cl.N=C(N)c1ccccc1 [Cmpd 163, Benzamidine HCl] | +++ |
| CCc1oc2ccccc2c1C(=O)c1cc(Br)c(O)c(Br)c1 [Cmpd 164, Benzbromarone] | ++++ |
